Data taken from patent US20090005390A1, “NOVEL QUINUCLIDINE DERIVATIVES AND THEIR USE” (N[…]/S, priority 2002, published 2009).

What was measured:
[1] = biological target: T1, α7-subtype of nicotinic receptors (Rattus norvegicus, UniProt Q05941); test: In vitro inhibition of 3H-α-bungarotoxine binding in rat brain; settings: rat cerebral cortex homogenate; 3H-α-bungarotoxine 2 nM; 2 hours at 37° C.
T1 construct: Cerebral cortices from male Wistar rats (150-250 g) are homogenised; from tissue; host or cells: rat cerebral cortex membrane homogenate
T1 sequence (Q05941 23-502): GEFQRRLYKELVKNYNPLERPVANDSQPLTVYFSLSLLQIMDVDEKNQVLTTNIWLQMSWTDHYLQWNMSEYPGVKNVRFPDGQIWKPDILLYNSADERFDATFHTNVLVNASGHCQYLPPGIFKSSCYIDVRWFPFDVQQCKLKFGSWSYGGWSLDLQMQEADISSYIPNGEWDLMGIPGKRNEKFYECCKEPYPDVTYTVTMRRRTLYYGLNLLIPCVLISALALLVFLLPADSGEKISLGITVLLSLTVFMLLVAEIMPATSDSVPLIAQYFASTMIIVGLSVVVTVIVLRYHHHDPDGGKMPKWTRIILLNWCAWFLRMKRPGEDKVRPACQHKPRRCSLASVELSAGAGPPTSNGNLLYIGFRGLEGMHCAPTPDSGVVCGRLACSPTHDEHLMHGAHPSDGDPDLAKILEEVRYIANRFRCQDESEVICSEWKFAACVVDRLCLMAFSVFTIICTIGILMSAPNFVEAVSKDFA

| SMILES | melting point [°C] | IC50 [1] [nM] |
| --- | --- | --- |
| O=C(O)/C=C/C(=O)O.c1cc2c(cc1OC1CN3CCC1CC3)CCC2 (racemic) | 149.3 to 150.5 |  |
| O=C(O)/C=C/C(=O)O.c1ccc(-c2nnc(OC3CN4CCC3CC4)s2)cc1 (racemic) | 168.5 to 172 |  |
| O=C(O)/C=C/C(=O)O.c1cc(-c2ccc(OC3CN4CCC3CC4)nn2)co1 (racemic) | 224.8 to 225.4 |  |
| O=C(O)/C=C/C(=O)O.c1cncc(-c2ccc(OC3CN4CCC3CC4)nn2)c1 (racemic) | 137.2 to 143.2 |  |
| C.I.c1ccc2nc(OC3CN4CCC3CC4)ccc2c1 (racemic) | 156.6 to 175.2 |  |
| C.I.c1ccc2nc(OC3CN4CCC3CC4)cnc2c1 (racemic) | 229 to 230 |  |
| Clc1nc2ccccc2nc1OC1CN2CCC1CC2.O=C(O)/C=C/C(=O)O (racemic) | 120.8 to 122.1 |  |
| C.I.c1ccc2c(OC3CN4CCC3CC4)nsc2c1 (racemic) | 180.1 to 186.4 |  |
| O=C(O)/C=C/C(=O)O.c1ccc2sc(OC3CN4CCC3CC4)nc2c1 (racemic) [Compound B3, (±)-3-(Benzothiazol-2-yloxy)-1-aza-bicyclo[2.2.2]octane fumaric acid salt] | 173.7 to 174.2 | 170 |
| Brc1cnc(OC2CN3CCC2CC3)s1.O=C(O)/C=C/C(=O)O (racemic) | 157.8 to 162.1 |  |
| O=C(O)/C=C/C(=O)O.c1csc(-c2cnc(OC3CN4CCC3CC4)s2)c1 (racemic) [Compound D4, (±)-3-[5-(2-Thienyl)-thiazol-2-yloxy]-1-aza-bicyclo[2.2.2]octane fumaric acid salt] | 152.6 to 154.9 | 20 |
| O=C(O)/C=C/C(=O)O.c1ccc(-c2ccc(OC3CN4CCC3CC4)cc2)cc1 (racemic) [Compound A2, (±)-3-(4-Phenylphenyloxy)-1-aza-bicyclo[2.2.2]octane fumaric acid salt] | 173.5 to 185.1 | 160 |
| O=C(O)/C=C/C(=O)O.c1ccc(-c2ccccc2OC2CN3CCC2CC3)cc1 (racemic) | 125.4 |  |
| O=C(O)/C=C/C(=O)O.c1cc2c(cc1OC1CN3CCC1CC3)CCCC2 (racemic) | 109.7 to 111.3 |  |
| O=C(O)/C=C/C(=O)O.c1ccc2nc(OC3CN4CCC3CC4)ccc2c1 (racemic) | 160 to 160.5 |  |
| O=C(O)/C=C/C(=O)O.c1ccc2oc(OC3CN4CCC3CC4)nc2c1 (racemic) | 187.2 to 188.8 |  |
| O=C(O)/C=C/C(=O)O.c1csc(-c2ccc(OC3CN4CCC3CC4)nn2)c1 (racemic) [Compound D8, (±)-3-[6-(2-Thienyl)-pyridazin-3-yloxy]-1-aza-bicyclo[2.2.2]octane fumaric acid salt] | 180.3 to 191.1 | 53 |
| COc1nc2ccccc2nc1OC1CN2CCC1CC2.O=C(O)/C=C/C(=O)O (racemic) | 168.5 to 170 |  |

| SMILES | melting point [°C] | IC50 [1] [nM] |
| --- | --- | --- |
| O=C(O)/C=C/C(=O)O.c1cc(-c2cnc(OC3CN4CCC3CC4)s2)cs1 (racemic) [Compound D3, (±)-3-[5-(3-Thienyl)-thiazol-2-yloxy]-1-aza-bicyclo[2.2.2]octane fumaric acid salt] | 68.5 to 74.3 | 110 |
| O=C(O)/C=C/C(=O)O.c1cc(-c2nnc(OC3CN4CCC3CC4)s2)cs1 (racemic) [Compound B17, (±)-3-[5-(3-Thienyl)-1,3,4-thiadiazol-2-yloxy]-1-aza-bicyclo[2.2.2]octane fumaric acid salt] | 186 to 188 | 150 |
| O=C(O)/C=C/C(=O)O.c1cc(-c2ccc(OC3CN4CCC3CC4)nn2)cs1 (racemic) [Compound D7, (±)-3-[6-(3-Thienyl)-pyridazin-3-yloxy]-1-aza-bicyclo[2.2.2]octane fumaric acid salt] | 197.9 | 130 |
| Clc1ccc(OC2CN3CCC2CC3)nn1.O=C(O)/C=C/C(=O)O (racemic) | 164 to 164.5 |  |
| O=C(O)/C=C/C(=O)O.c1ccc2cc(OC3CN4CCC3CC4)ccc2c1 (racemic) | 140.9 to 141.6 |  |
| O=C(O)/C=C/C(=O)O.c1ccc2nc(OC3CN4CCC3CC4)cnc2c1 (racemic) | 127.7 to 128.5 |  |
| O=C(O)/C=C/C(=O)O.c1ccc(-c2cnc(OC3CN4CCC3CC4)s2)cc1 (racemic) [Compound D1, (±)-3-(5-Phenyl-thiazol-2-yloxy)-1-aza-bicyclo[2.2.2]octane fumaric acid salt] | 170.9 to 172.2 | 52 |
| O=C(O)/C=C/C(=O)O.c1ccc2c(OC3CN4CCC3CC4)nsc2c1 (racemic) | 172.3 to 173.6 |  |
| O=C(O)/C=C/C(=O)O.c1ccc(-c2ccc(OC3CN4CCC3CC4)nn2)cc1 (racemic) | 168.5 to 172 |  |
| Brc1ccc(OC2CN3CCC2CC3)nn1.O=C(O)/C=C/C(=O)O (racemic) | 152.8 |  |
| Cn1c(OC2CN3CCC2CC3)nc2ccccc21.O=C(O)/C=C/C(=O)O (racemic) | 184.9 to 185.9 |  |
| O=C(O)/C=C/C(=O)O.c1cc(-c2cnc(OC3CN4CCC3CC4)s2)co1 (racemic) [Compound D5, (±)-3-[5-(3-Furanyl)-thiazol-2-yloxy]-1-aza-bicyclo[2.2.2]octane fumaric acid salt] | 127.6 to 136.2 | 48 |
| O=C(O)/C=C/C(=O)O.c1coc(-c2ccc(OC3CN4CCC3CC4)nn2)c1 (racemic) | 175.8 to 178.2 |  |
| O=C(O)/C=C/C(=O)O.c1cnc2ccc(OC3CN4CCC3CC4)cc2c1 (racemic) | 146 to 147 |  |
| O=C(O)/C=C/C(=O)O.c1cncc(-c2cnc(OC3CN4CCC3CC4)s2)c1 (racemic) [Compound D6, (±)-3-[5-(3-Pyridyl)-thiazol-2-yloxy]-1-aza-bicyclo[2.2.2]octane fumaric acid salt] | 82.7 to 86 | 180 |
| Clc1ccc2nc(OC3CN4CCC3CC4)sc2c1.O=C(O)/C=C/C(=O)O (racemic) [Compound B2, (±)-3-(6-Chloro-benzothiazol-2-yloxy)-1-aza-bicyclo[2.2.2]octane fumaric acid salt] | 203 to 205 | 180 |
| Fc1ccc(-c2cnc(OC3CN4CCC3CC4)s2)c(F)c1.O=C(O)/C=C/C(=O)O (racemic) | 84.3 to 86.3 |  |
